According to ChEMBL document CHEMBL1141623 (Bioorg Med Chem Lett, 2008):

Experiments:
Mu-type opioid receptor = Mu-type opioid receptor (Homo sapiens, UniProt P35372); assay: Binding affinity to mu opioid receptor
[1] = target: Sodium-dependent noradrenaline transporter (Homo sapiens, UniProt P23975); assay: Inhibition of NET mediated norepinephrine uptake
[2] = target: Sodium-dependent serotonin transporter (Homo sapiens, UniProt P31645); assay: Inhibition of SERT mediated 5-hydroxytryptamine uptake
[3] = Stability in human liver microsome after 60 mins; type: ADME; conditions: liver microsomes, read-out: Stability
[4] = Stability in rat liver S9 fraction after 60 mins; type: ADME, subcellular; conditions: read-out: Stability
[5] = Stability in rat liver microsome after 60 mins; type: ADME; conditions: liver microsomes, read-out: Stability
[6] = Stability in human liver S9 fraction after 60 mins; type: ADME, subcellular; conditions: read-out: Stability
Rattus norvegicus [7] = assay: Analgesic activity in iv dosed Sprague-Dawley rat by tail-flick model of pain; type: functional
Rattus norvegicus [8] = assay: Toxicity in iv dosed Sprague-Dawley rat; type: organism-based; conditions: in vivo
[9] = Bioavailability in […] dosed Sprague-Dawley rat; type: ADME, organism-based; conditions: in vivo
Rattus norvegicus [10] = assay: Analgesic activity in iv dosed Sprague-Dawley rat assessed as duration of effect by tail-flick model of pain; type: functional

Sequence of Mu-type opioid receptor (P35372 whole entry): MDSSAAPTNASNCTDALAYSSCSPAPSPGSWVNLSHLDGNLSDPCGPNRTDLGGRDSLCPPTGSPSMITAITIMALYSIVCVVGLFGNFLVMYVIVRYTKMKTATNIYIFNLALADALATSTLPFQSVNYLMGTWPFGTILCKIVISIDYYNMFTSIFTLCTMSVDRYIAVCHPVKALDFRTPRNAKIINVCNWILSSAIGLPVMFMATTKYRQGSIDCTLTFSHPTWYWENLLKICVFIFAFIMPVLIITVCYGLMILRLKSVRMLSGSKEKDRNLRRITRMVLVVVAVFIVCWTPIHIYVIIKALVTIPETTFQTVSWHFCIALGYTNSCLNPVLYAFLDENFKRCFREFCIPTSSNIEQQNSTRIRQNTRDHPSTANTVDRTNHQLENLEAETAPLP
Sequence of Sodium-dependent serotonin transporter (P31645 whole entry): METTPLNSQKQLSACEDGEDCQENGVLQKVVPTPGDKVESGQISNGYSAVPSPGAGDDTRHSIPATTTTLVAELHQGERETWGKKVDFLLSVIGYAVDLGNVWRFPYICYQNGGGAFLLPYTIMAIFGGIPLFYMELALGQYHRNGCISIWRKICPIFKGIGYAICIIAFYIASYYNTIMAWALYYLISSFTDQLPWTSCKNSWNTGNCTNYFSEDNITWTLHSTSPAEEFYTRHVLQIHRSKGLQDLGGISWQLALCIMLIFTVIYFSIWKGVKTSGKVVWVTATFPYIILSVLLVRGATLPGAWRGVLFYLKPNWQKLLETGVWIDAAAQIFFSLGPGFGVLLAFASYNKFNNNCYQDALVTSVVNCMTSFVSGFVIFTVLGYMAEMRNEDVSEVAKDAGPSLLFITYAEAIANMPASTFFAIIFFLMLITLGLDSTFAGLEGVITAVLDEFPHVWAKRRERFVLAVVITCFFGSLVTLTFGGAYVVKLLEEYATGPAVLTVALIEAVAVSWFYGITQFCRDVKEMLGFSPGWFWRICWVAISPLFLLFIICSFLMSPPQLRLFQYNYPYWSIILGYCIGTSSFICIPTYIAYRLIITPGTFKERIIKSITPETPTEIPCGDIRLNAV
Sequence of Sodium-dependent noradrenaline transporter (P23975 whole entry): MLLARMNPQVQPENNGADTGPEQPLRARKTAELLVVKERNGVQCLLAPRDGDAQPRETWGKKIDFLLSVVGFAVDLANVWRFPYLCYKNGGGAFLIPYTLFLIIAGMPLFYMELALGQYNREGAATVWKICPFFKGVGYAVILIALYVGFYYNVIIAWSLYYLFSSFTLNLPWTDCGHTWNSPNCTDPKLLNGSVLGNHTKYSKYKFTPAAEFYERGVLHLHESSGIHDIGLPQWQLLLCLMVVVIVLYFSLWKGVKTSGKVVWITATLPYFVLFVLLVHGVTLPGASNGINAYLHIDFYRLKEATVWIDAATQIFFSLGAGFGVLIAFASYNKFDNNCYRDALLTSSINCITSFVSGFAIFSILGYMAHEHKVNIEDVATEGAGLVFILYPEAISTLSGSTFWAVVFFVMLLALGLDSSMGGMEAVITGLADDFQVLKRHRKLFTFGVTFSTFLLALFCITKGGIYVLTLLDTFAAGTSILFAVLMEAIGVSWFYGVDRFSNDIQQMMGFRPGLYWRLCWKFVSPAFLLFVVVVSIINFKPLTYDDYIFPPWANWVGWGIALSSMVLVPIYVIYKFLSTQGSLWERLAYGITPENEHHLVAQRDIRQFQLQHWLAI

SMILES	IC50 (Mu-type opioid receptor) [µM]	IC50 [1] [µM]	IC50 [2] [µM]	remaining at 1 h [3] [%]	remaining at 1 h [4] [%]	remaining at 1 h [5] [%]	remaining at 1 h [6] [%]	ED50 (Rattus norvegicus [7]) [mg/kg]	Activity (Rattus norvegicus [8])	bioavailability [9] [%]	Time (Rattus norvegicus [10]) [min]
CNC[C@H]1CCCC[C@]1(OC)c1cccc(O)c1 (stereo in doubt; 26)	0.048	> 10	5.26	–	–	–	–	–	–	–	–
CNC[C@H]1CCCC[C@]1(OC)c1cccc(O)c1 (stereo in doubt; 23)	0.122	2.25	6.92	103	82	86	108	–	–	–	–
CNCC1CCCCC1(OC)c1cccc(OC)c1 (racemic)	> 10	3.87	–	77	26	31	76	2.9	–	–	–
CCO[C@]1(c2cccc(O)c2)CCCC[C@@H]1CN(C)C	0.13	3.78	1.42	–	–	–	–	–	–	–	–
CCCO[C@]1(c2cccc(OC)c2)CCCC[C@@H]1CN(C)C	7.9	3.87	0.025	–	–	–	–	–	–	–	–
CO[C@]1(c2cccc(O)c2)CCCC[C@@H]1CN(C)C	0.056	0.525	10	104	74	88	98	–	–	–	–
COc1cccc([C@@]2(OCCCO)CCCC[C@@H]2CN(C)C)c1	8	3.86	1.49	–	–	–	–	–	–	–	–
CO[C@]1(c2cccc(C#N)c2)CCCC[C@@H]1CN(C)C	> 10	4.49	6.24	89	83	69	94	–	–	–	–
CO[C@]1(c2ccccc2)CCCC[C@@H]1CN(C)C (stereo in doubt; 28)	2.59	1.52	2.96	–	–	–	–	–	Toxic	–	–
CCO[C@]1(c2cccc(OC)c2)CCCC[C@@H]1CN(C)C	> 10	1.01	0.181	–	–	–	–	–	–	–	–
CCCCO[C@]1(c2cccc(O)c2)CCCC[C@@H]1CN(C)C	0.097	> 10	2.74	–	–	–	–	–	–	–	–
COc1cccc([C@@]2(OC)CCCC[C@@H]2CN(C)C)c1 (racemic)	7.87	0.161	–	82	12	17	85	0.7	–	11	20
CN(C)C[C@H]1CCCC[C@]1(OCC1CC1)c1cccc(O)c1	0.13	> 10	3.67	–	–	–	–	–	–	–	–
CO[C@@]1(c2ccccc2)CCCC[C@H]1CN(C)C	> 10	1.56	3.88	–	–	–	–	3.3	–	–	13
CNC[C@@H]1CCCC[C@@]1(OC)c1cccc(OC)c1	> 10	0.898	–	–	–	–	–	3.1	–	–	27
COc1cccc([C@@]2(OCCO)CCCC[C@@H]2CN(C)C)c1	> 10	> 10	> 10	–	–	–	–	–	–	–	–
CO[C@]1(c2ccccc2)CCCC[C@@H]1CN(C)C (stereo in doubt; 14)	4.75	3.79	2.53	96	61	56	101	–	–	–	–
CNC[C@H]1CCCC[C@]1(OC)c1cccc(OC)c1	> 10	> 10	–	–	–	–	–	–	Toxic	–	–
CCCCO[C@]1(c2cccc(OC)c2)CCCC[C@@H]1CN(C)C	6.49	6.69	0.11	9	4	3	10	–	–	–	–
COc1cccc(C2(O)CCCCC2CN(C)C)c1 (racemic) [TRAMADOL]	–	3.86	–	96	56	58	95	11.3	–	36	69
CN(C)C[C@H]1CCCC[C@]1(O)c1cccc(O)c1 (racemic) [O-DESMETHYL TRAMADOL]	–	> 10	–	–	–	–	–	–	–	–	2
CCCO[C@]1(c2cccc(O)c2)CCCC[C@@H]1CN(C)C	0.19	6.25	2.8	–	–	–	–	–	–	–	–
COc1cccc([C@@]2(OCC3CC3)CCCC[C@@H]2CN(C)C)c1	7.67	3.78	0.025	29	6	3	35	–	–	–	–
CNC[C@@H]1CCCC[C@@]1(OC)c1cccc(O)c1	0.084	9	1.05	–	–	–	–	–	–	–	–
CN(C)C[C@H]1CCCC[C@]1(OCCO)c1cccc(O)c1	0.19	5.95	1.5	–	–	–	–	–	–	–	–
